Assay results reported in patent publication US20200237742A1, “Serdexmethylphenidate Conjugates, Compositions And Methods Of Use Thereof” (priority 2018, published 2020).
Where a name gives a salt, the structure may show the parent alone.

How the values were obtained:
[1] = Intravenous pharmacokinetic study (KP415.A03) in recreational stimulant users; conditions: following intravenous administration
Protocol: (§1) A study was conducted in humans to assess the intravenous abuse potential of serdexmethylphenidate relative to unconjugated d-methylphenidate and placebo in recreational stimulant abusers. This was a Phase 1, randomized, double-blind study in which serdexmethylphenidate and d-methylphenidate were administered intravenously in recreational stimulant users with a history of non-oral abuse. In Part A of the study, subjects (Cohort 1) participated in a dose-escalation phase to determine the optimal dose of intravenous d-methylphenidate based on tolerability and abuse-related pharmacodynamic assessments. […] The doses of serdexmethylphenidate and d-methylphenidate are equivalent with respect to molar amount of d-methylphenidate. FDA-recommended abuse potential measures and blood samples were collected at different times after dosing. Safety assessments were performed throughout the study.

[2] = test system: recreational stimulant abusers; assay: Intravenous abuse potential study, VAS pharmacodynamic assessments; type: in vivo, human
Text: “Drug liking” score, used herein, is the score used to assess the degree that a human participant likes a drug effect at the time the question is being asked (that is, at the moment). It is scored using a 0 to 100 point bipolar visual analogue scale (VAS) anchored in the center with a neutral anchor of “neither like nor dislike” (score of 50), on the left with “strong disliking” (score of 0) and on the right with “strong liking” (score of 100).
“Euphoria” or “Feeling High” score, used herein, is the term to describe the score used to assess the degree that a human participant is high at the time the question is being asked (that is, at the moment). It is scored using a 0 to 100 point unipolar visual analogue scale (VAS) anchored on the left with “Not at All” (score of 0) and on the right with “Extremely” (score of 100).
“Take Drug Again” score, used herein, is the term to describe the score used to assess the degree that a human participant wants to take the drug again, if given the opportunity, based on his/her opinion now, i.e., at the time the question is being asked. It is scored using a 0 to 100 point unipolar visual analogue scale (VAS) anchored on the left with “Definitely Would Not” (score of 0) and on the right with “Definitely Would” (score of 100).
“Overall Drug Liking” score, used herein, is the term to describe the score used to assess the human subject's global perception of drug liking (i.e., the subjective effects over the whole course of the drug experience including any carryover effects). Subjects respond to the statement “Overall, my liking for this drug is.” The question is scored using a 0-100 point bipolar VAS anchored on the left with “Strong Disliking” (score of 0); “Neither Like nor Dislike” (score of 50) in the middle, and anchored on the right with “Strong Liking” (score of 100). This scale has the advantage of the human subject being relatively less affected or unaffected by acute study drug effects (if any) by the time of the assessment.
“Good Effects” score, used herein, is the term to describe the score used to assess the degree that a human participant is feeling good drug effects at the time the question is being asked (that is, at the moment). Subjects respond to the statement “At this moment, I can feel good drug effects.” It is scored using a 0 to 100 point unipolar visual analogue scale (VAS) anchored on the left with “Not at All” (score of 0) and on the right with “Extremely” (score of 100).
Safety assessments were performed throughout the study.

[3] = Intranasal study (KP415.A02), plasma pharmacokinetics; type: in vivo, human; conditions: intranasal administration
Protocol: On dosing days in the Treatment Phase, blood samples were collected for the measurement of the plasma concentrations of SDX, d-methylphenidate (d-MPH), 1-methylphenidate (1-MPH) and ritalinic acid at predose and at 0.25, 0.5, 0.75, 1, 1.5, 2, 3, 4, 5, 6, 7, 8, 9, 10, 12, 16, 24, 36, and 48 hours ±5 minutes after each dose of study drug. […] All VAS pharmacodynamic assessments except Take Drug Again and Overall Drug Liking were performed at 0.25, 0.5, 0.75, 1, 1.5, 2, 3, 4, 5, 6, 7, 8, 10, 12, 24 hours ±5 minutes postdose. In addition, predose assessments of Feeling High, and Drowsiness/Alertness were collected. The Take Drug Again and Overall Drug Liking VAS assessments were performed at 12 and 24 hours ±5 minutes postdose. Ease of Nasal Insufflation scores were completed within 5 minutes after the completion of each intranasal drug administration during the Treatment Phase.

[4] = test system: healthy, nondependent, recreational stimulant users; assay: Oral abuse potential study, VAS pharmacodynamic assessments
[5] = test system: recreational stimulant abusers; assay: Intravenous study, treatment-emergent adverse events; conditions: d-methylphenidate treatment vs serdexmethylphenidate
Protocol: as §1

[6] = Focalin XR 80 mg, phentermine HCl 60 mg, bipolar VAS
[7] = Focalin XR 80 mg, phentermine HCl 60 mg, unipolar VAS
[8] = phentermine HCl 60 mg vs SDX Cl 120 mg
[9] = phentermine HCl 60 mg vs SDX Cl 240 mg
[10] = phentermine HCl 60 mg vs placebo

COC(=O)[C@H](c1ccccc1)[C@H]1CCCCN1C(=O)OC[n+]1cccc(C(=O)N[C@@H](CO)C(=O)O)c1 [serdexmethylphenidate]
conversion of serdexmethylphenidate to d-methylphenidate [1]: very little conversion
Median Difference Drug Liking Emax, A vs C ([2]; SDX Cl 30 mg vs placebo, bipolar VAS): not significantly different
Median Difference Drug Liking Emax, B vs A ([2]; d-MPH HCl 15 mg vs SDX Cl 30 mg, bipolar VAS): significantly lower
effects on multiple abuse-related endpoints vs intravenous placebo ([2]; subjects with a history of non-oral abuse of stimulants): statistically similar
conversion of SDX to the active d-methylphenidate when snorted [3]: not readily or effectively converted

CC(C)(N)Cc1ccccc1 [phentermine hydrochloride, reference compound]
Drug Liking Emax, Median [4, 6]: 84.0
Feeling Alert/Drowsy Emax, Median [4, 6]: 84.0
Overall Drug Liking Emax, Median [4, 6]: 77.0
Take Drug Again Emax, Median [4, 6]: 75.0
Any Effects Emax, Median [4, 7]: 74.0
Bad Effects Emax, Median [4, 7]: 7.0
Feeling High Emax, Median [4, 7]: 76.0
Good Effects Emax, Median [4, 7]: 75.0
Mean Difference Any Effects Emax, D vs A [4, 8]: 37.4
Mean Difference Bad Effects Emax, D vs A [4, 8]: 11.9
Mean Difference Feeling Alert/Drowsy Emax, D vs A [4, 8]: 15.7
Mean Difference Feeling High Emax, D vs A [4, 8]: 36.0
Mean Difference Good Effects Emax, D vs A [4, 8]: 35.5
Mean Difference Overall Drug Liking Emax, D vs A [4, 8]: 14.9
Mean Difference Take Drug Again Emax, D vs A [4, 8]: 14.9
Mean Difference Drug Liking Emax, D vs A ([4]; phentermine HCl 60 mg vs SDX Cl 120 mg, margin 10): 15.5
Mean Difference Any Effects Emax, D vs B [4, 9]: 28.0
Mean Difference Bad Effects Emax, D vs B [4, 9]: 4.6
Mean Difference Feeling Alert/Drowsy Emax, D vs B [4, 9]: 12.2
Mean Difference Feeling High Emax, D vs B [4, 9]: 27.7
Mean Difference Good Effects Emax, D vs B [4, 9]: 30.2
Mean Difference Overall Drug Liking Emax, D vs B [4, 9]: 15.3
Mean Difference Take Drug Again Emax, D vs B [4, 9]: 15.4
Mean Difference Drug Liking Emax, D vs B ([4]; phentermine HCl 60 mg vs SDX Cl 240 mg, margin 10): 14.0
Bad Effects Emax, median difference D vs E [4, 10]: 8.0c
Mean Difference Any Effects Emax, D vs E [4, 10]: 48.5
Mean Difference Feeling Alert/Drowsy Emax, D vs E [4, 10]: 23.5
Mean Difference Feeling High Emax, D vs E [4, 10]: 46.4
Mean Difference Good Effects Emax, D vs E [4, 10]: 47.6
Mean Difference Overall Drug Liking Emax, D vs E [4, 10]: 18.6
Mean Difference Take Drug Again Emax, D vs E [4, 10]: 17.1
Mean Difference Drug Liking Emax, D vs E ([4]; phentermine HCl 60 mg vs placebo, margin 10, hydrochloride): 22.3
Mean Difference Drug Liking Emax, D vs E ([4]; phentermine HCl 60 mg vs placebo, margin 10, listed as Phentermine, hydrochloride): statistically significantly higher

COC(=O)[C@H](c1ccccc1)[C@H]1CCCCN1 [d-methylphenidate, methyl (R)-2-phenyl-2-((R)-piperidin-2-yl)acetate, reference compound]
Drug Liking Emax, statistical analysis vs. placebo ([2]; d-MPH HCl 15 mg vs placebo (study validity)): significantly higher
Typical stimulant-related Adverse Events (euphoric mood, hypervigilance, increased heart rate) [5]: more common
